Broadly, the inhibition is the percentage by which the read-out fell short of the control.

Structures are written as SMILES.

For one data set, the target named is T1, Top1 (Homo sapiens, UniProt P11387).
T1 construct: purchased TopoGEN, Buena Vista, CO, USA
T1 sequence (P11387 1-765): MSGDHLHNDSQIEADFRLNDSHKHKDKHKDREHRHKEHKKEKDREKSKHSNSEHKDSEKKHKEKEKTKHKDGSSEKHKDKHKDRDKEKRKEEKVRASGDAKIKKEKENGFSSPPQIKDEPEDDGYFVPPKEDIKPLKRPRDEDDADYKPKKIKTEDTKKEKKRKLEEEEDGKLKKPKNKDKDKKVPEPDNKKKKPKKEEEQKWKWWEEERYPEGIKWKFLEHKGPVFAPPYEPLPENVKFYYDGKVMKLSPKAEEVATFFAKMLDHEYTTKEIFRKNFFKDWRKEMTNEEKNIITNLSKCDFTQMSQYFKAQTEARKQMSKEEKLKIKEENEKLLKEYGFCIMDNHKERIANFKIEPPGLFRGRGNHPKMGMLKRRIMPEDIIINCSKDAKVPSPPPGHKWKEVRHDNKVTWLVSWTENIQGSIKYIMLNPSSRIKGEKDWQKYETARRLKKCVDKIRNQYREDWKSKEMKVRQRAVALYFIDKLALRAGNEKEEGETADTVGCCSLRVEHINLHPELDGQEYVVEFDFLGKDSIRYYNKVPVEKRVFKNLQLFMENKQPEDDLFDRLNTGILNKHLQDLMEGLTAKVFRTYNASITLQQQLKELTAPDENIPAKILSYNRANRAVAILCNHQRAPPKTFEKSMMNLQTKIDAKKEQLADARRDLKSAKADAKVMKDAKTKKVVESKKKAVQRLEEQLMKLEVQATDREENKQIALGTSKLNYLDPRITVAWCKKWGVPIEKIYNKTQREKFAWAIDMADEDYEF
In words: Direct Top1 enzyme activity (DNA relaxation) assay. It counts as biochemical. The following applies: gel electrophoresis. Here is the method:
Different concentrations of the drug solution were prepared. The solvent was used as negative control group, and CPT (50 μM) was used as the positive control group. Each sample included 2 units of Top1 (TopoGEN, Buena Vista, CO, USA) and 250 ng super helical DNA (pHOT-1, TopoGEN, Buena Vista, CO, USA). The samples were incubated for 30 min at 37 °C, and then the reaction was stopped with SDS. After digestion with proteinase K (50 μg/mL, 60 min at 37 °C), samples were separated through electrophoresis (1% agarose gel). The electrophoresis was conducted at 180 V constant pressure for 20 min. The gel was immersed in the dye without EB for 30 min, and the images were collected by gel imaging system (Tanon-1600B, Shanghai, China).

Data set [1] has as its target Top1 in CL187 cells (Homo sapiens, UniProt P11387). Nature of the data set: Intracellular Top1 enzyme activity assay. The arrangement: endogenous in cells; host or cells: CL187 cells (nuclear, mitochondrial and cytoplasmic extracts). To be noted: CL187 cells treated 6 h; CPT at 50 μM. It is filed as cell-based. Here is the method: (§1) CL187 cells were treated with different concentrations of drugs for 6 h. The supernatant was discarded, and the cells were collected. The extracts of cytoplasm, mitochondria, and nucleus were obtained by the same method as described in Section 2.4.7. The protein concentration of each extract was detected by BCA kit. Enzyme activity reaction was carried out by using 125 ng super helical DNA (pHOT-1) and cell extract. The protein concentration of the extract was guaranteed to be the same in each group. The mixture solution of the pHOT-1 and the cell extract was added into the reaction buffer and incubated for 30 min at 37 °C. The reaction was terminated with loading buffer. The agarose gel electrophoresis was performed, and the images were collected.

The subject of the next data set is Tdp1-over CL187 cells. Nature of the data set: Cell viability of Tdp1-overexpressing cells. It is filed as cell-based, Human. To be noted: Tdp1-over CL187; CPT 0.5 μM, FM 25 μM. Here is the method: CL187 cells were cultured on 6-cm dishes at 37 °C for 24 h. The plasmid (2.5 μg) was diluted with 125 μL serum-free medium Opti-MEM, mixed gently, and incubated at room temperature for 5 min. Lipo 3000 (Invitrogen, Waltham, MA, USA) were diluted with 125 μL serum-free medium Opti-MEM, mixed and incubated for 5 min. Mixed the plasmid and Lipo 3000, incubated at room temperature for 20 min, the mixture was added to CL187 cells, the Tdp1 overexpressed plasmid were transfected into CL187 cells.
PTE or RE were dissolved in DMSO and diluted with culture medium to 1–100 μM. The final concentration of DMSO was less than 0.1%, and 0.1% DMSO as negative control. CPT, as Top1 inhibitor, was diluted to 0.5 μM [36, 37], and FM, as Tdp1 inhibitor was diluted to 25 μM [38]. Exponentially growing cells were seeded in 96-well plates (5 × 10^3 cells/well) for 12 h. […] Cell viability was determined by CCK-8 (Beyotime Biotechnology, Shanghai, China) assay. Cell viability and inhibition rate were calculated with the following formulae:Cell viability (%) = [OD450 (sample)/OD450 (control)] × 100(1) Inhibition rate (%) = […] − cell viability (%)(2)
The drug concentration required for inhibiting cell proliferation by 50% (IC50) was determined by interpolation from dose-response curves.

The next data set has as its system siRNA-Tdp1 CL187 cells. Nature of the data set: Cell viability of Tdp1-silenced cells. It counts as cell-based, Human. To be noted: siRNA-Tdp1 CL187, CPT 0.5 μM; for sensitivity / efficacy of positive controls: FM 25 μM. Here is the method: (§2) PTE or RE were dissolved in DMSO and diluted with culture medium to 1–100 μM. The final concentration of DMSO was less than 0.1%, and 0.1% DMSO as negative control. […] Exponentially growing cells were seeded in 96-well plates (5 × 10^3 cells/well) for 12 h. Various drugs were added separately and incubated for 24, 48, and 72 h. Cell viability was determined by CCK-8 (Beyotime Biotechnology, Shanghai, China) assay.

For another data set, the system named is siRNA-Top1 CL187 cells. Nature of the data set: Cell viability of Top1-silenced cells. It is filed as cell-based, Human. To be noted: siRNA-Top1 CL187; CPT 0.5 μM, FM 25 μM. Here is the method: as §2
Data set [2] relates to Top1 in CL187 cells. In words: Intracellular Top1 enzyme activity assay. It counts as cell-based, Human. To be noted: CL187 cells treated 6 h. The protocol:
as §1

For data set [3], the system named is orthotopic CL187 xenograft. Nature of the data set: Orthotopic CL187 xenograft model. It is filed as in vivo, BABLc/nude mice. Here is the method: (§3) The mice were anaesthetized with 10% chloral hydrate and fixed on the operating table. After the abdomen of the mice was disinfected with iodine, a small section of the large intestine was squeezed out of the surgical opening. The 0.1 mL (per mouse) CL187 cell suspension (1 × 10^7 /mL) was inoculated into the colon wall of nude mice. After the inoculation, the large intestine was placed into the mouse abdominal cavity. After the wound was sutured, the mice were put into cages until they naturally woke up. After 10 days of inoculation, the animals were randomly divided into 4 groups (6 mice per group). Vector control group was intraperitoneally injected with 5% DMSO and 95% saline containing 30% HP-β-CD (i.p.). The drug dosage was designed according to the results of the previous pharmacokinetic experiment. Experimental Group 1 was intraperitoneal injected (i.p.) with PTE 100 mg/kg, and experiment Group 2 was intragastric administrated (i.g.) with PTE 500 mg/kg, once a day. The bioavailability of PTE was the same in the animals in the above regimens. Positive control group was injected with irinotecan, 20 mg/kg, twice a week. During the experiment, the changes of body weight of nude mice were recorded. After 21 days, the nude mice were sacrificed, the tumor blocks were removed surgically, weighed, and recorded.
Tumor and organ tissues were paraffin-embedded and sectioned into […] after being fixed in 4% of paraformaldehyde solution for 24 h. The sections were deparaffinized and rehydrated before detection. For histological observation, tumor sections were stained with hematoxylin and eosin (HE), and then observed by an inverted microscopy (Olympus, Japan).
For immunohistochemistry analysis, the sections were treated with 3% hydrogen peroxide for 10 min to block endogenous peroxidase, and then incubated with Ki67 primary antibody for overnight at 4 °C. Subsequently, the sections were treated with secondary antibody at room temperature for 20 min. After being washed with PBS, the sections were incubated with DAB chromogenic solution for 10 min, followed by rewashing in PBS. The sections were counterstained with hematoxylin after DAB coloration. The antibody specificity was confirmed by negative control without primary antibody treatment. Immunopositive areas were observed by an inverted microscope (Olympus, Japan).

In data set [4] the test system is liver, kidney, lung, and paracancerous colon tissues. Nature of the data set: HE staining of organs of orthotopic xenograft mice. It counts as in vivo. The following applies: orthotopic xenograft nude mice. The protocol: as §3, with “and recorded. Tumor and organ tissues were paraffin-embedded and sectioned into […] after being fixed in 4% of paraformaldehyde solution for 24 h. The sections were deparaffinized and rehydrated before detection. For histological observation, tumor sections were stained with hematoxylin and eosin (HE), and then observed by an inverted microscopy (Olympus, Japan).” for “and recorded.”

The test system of data set [5] is subcutaneous CL187 xenograft. Nature of the data set: Subcutaneous CL187 xenograft model. It is filed as in vivo, BABLc/nude mice. Here is the method:
CL187 cell suspension was collected at 1 × 10^6 /mL, and 0.1 mL cell was inoculated into the right inguinal region of nude mice. The tumor was no metastasis. The diameter of the transplanted tumor in nude mice was measured with a vernier caliper. After 16-day inoculation (the tumor grew to 90 mm^3), the animals were randomly divided into 7 groups (6 mice per group). The drug was administered by intraperitoneal injection. Blank control group was injected with saline. […] According to the preliminary test results. […] Positive control group was injected with irinotecan (20 mg/kg) twice a week, During the experiment, the changes of body weight of nude mice were recorded, and the anti-tumor effect of the samples was dynamically investigated by measuring tumor diameter. On Day 31 post treatment, the nude mice were sacrificed, and the tumor blocks were removed surgically, weighed, and recorded.

[6] abbreviates: 20 mg/kg-i.p. twice a week, 21 days.

Regarding `CC[C@@]1(O)C(=O)OCc2c1cc1n(c2=O)Cc2cc3ccccc3nc2-1` [CPT, camptothecin, reference compound], the “inhibition of Top1 enzyme activity (SC DNA relaxation)” value at Top1 (30 min incubation, CPT at 50 uM) is reported as “could inhibit Top1 enzyme activity”. Besides, at Top1 (relaxation of supercoiled pHOT-1 DNA, 30 min), the “concentration exhibiting the same inhibitory effect on Top1 enzyme activity” value is 50 µM. Further, on Top1 in CL187 cells [1], the “Top1 enzyme activity in the nucleus” value is “significantly inhibited”. Besides, the “sensitivity / response of cells to positive controls” value in the data set on Tdp1-over CL187 cells is recorded as “significantly reduced”. The inhibition at 0.5 µM in the data set on siRNA-Tdp1 CL187 cells (Homo sapiens, read-out: cell inhibition rate) was ~90%. Further, the “sensitivity / efficacy of positive controls” value in the data set on siRNA-Tdp1 CL187 cells is given as “significantly increased”. For the same molecule, the “inhibitory effect on cell proliferation of positive controls” value in the data set with siRNA-Top1 CL187 cells is given as “hardly exhibited inhibitory effect on cell proliferation”. The “concentration with the same inhibitory effect on intracellular Top1 enzyme activity” value in the data set on Top1 in CL187 cells [2] (cell extracts + SC DNA) came out at 50 µM. The “Top1 enzyme activity in mitochondria” value in the data set with Top1 in CL187 cells [2] (CPT at 50 μM) is listed as “significantly inhibited”.
With `CCc1c2c(nc3ccc(OC(=O)N4CCC(N5CCCCC5)CC4)cc13)-c1cc3c(c(=O)n1C2)COC(=O)[C@]3(O)CC` [CPT-11, irinotecan], in data set [3] (20 mg/kg-i.p.), the “degree of tumor necrosis (HE)” value is “+++ (+++ denotes the ratio between 1/2 and 3/4)”. Further, in [3] (setting [6]), the “Tumor Inhibitory Rate” value is 62.91 ± 11.78% and the “Tumor Weight” value is 0.81 ± 0.20 g. The “Ki67 labeling rate in tumor tissue” value in [3] (20 mg/kg-i.p., vector control 46.53±3.86%) was determined as 22.46 ± 6.78%. Also, in [4], the “effect on lung inflammation (HE sections)” value is on record as “could aggravate the inflammatory response”. For the same molecule, in data set [5] (20 mg/kg i.p. twice a week, Day 31), the “Tumor Weight” value came out at 1.18 ± 0.12 g. In data set [5] (subcutaneous CL187 xenograft nude mice, CPT-11 20 mg/kg, PTE 25-200 mg/kg i.p.), the “adverse reactions during the entire treatment process” value was “severe diarrhea, lassitude, and other adverse reactions”.
For `Cl.Cl.N=C(N)c1ccc(-c2ccc(-c3ccc(C(=N)N)cc3)o2)cc1` [FM, Furamidine dihydrochloride, reference compound], in the data set with Tdp1-over CL187 cells, the “sensitivity / response of cells to positive controls” value is “good response”. Also, the “sensitivity / efficacy of positive controls” value in the data set with siRNA-Tdp1 CL187 cells was “failed to exert its efficacy”. Moreover, the “inhibitory effect on cell proliferation of positive controls” value in the data set on siRNA-Top1 CL187 cells is given as “significantly enhancing the inhibitory effect on the cells”.

The values above are taken from article PMC8391236, “Effect of Pterostilbene, a Natural Derivative of Resveratrol, in the Treatment of Colorectal Cancer through Top1/Tdp1-Mediated DNA Repair Pathway” (Cancers, 2021).
